Results on 38 molecules are retold here after ChEMBL document CHEMBL1201862, “PubChem BioAssay data set” (2004).

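Compound exposure: 48 hours, 5 concentrations, 96-well plates. At the GI50, growth is halved.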 Activity calls are given as the source filed them. Cut-off read from the data, not from the text of the source: active = GI50 up to about 1.1 µM and inactive = higher.

Among the test systems are DLD-1; SNB-78; DMS-114; KM-20L2; M19-MEL; DMS-273; LXFL 529; 786-0; RXF 631.
Test in all cases: NCI anticancer screen, dose series, 48 h

For the molecule `C=C/C(C)=C/[C@H](C)C(=O)C[C@H](O)CC1CC(=O)NC(=O)C1`, the GI50 in the test on DLD-1 is 44.2 µM (inactive); in the test with SNB-78, 27.4 µM (inactive); with DMS-114 it was 38.3 µM (inactive); in the test on KM-20L2, 19.2 µM (inactive); with M19-MEL it was 80.4 µM (inactive); in the test with DMS-273, 34.9 µM (inactive).

As for `COC(=O)C1CCC(=O)N1/C(C)=N/NC(=O)Nc1ccc(Cl)c(Cl)c1` (stereo unspecified), the GI50 is > 100 µM (inactive) in the test with DLD-1; > 100 µM (inactive) in the test with SNB-78; > 100 µM (inactive) in the test with DMS-114; 28 µM (inactive) in the test with LXFL 529; 32.2 µM (inactive) with KM-20L2; > 100 µM (inactive) in the test with M19-MEL. Besides, the GI50 in the test on DMS-273 and with 786-0 was > 100 µM (inactive) each time.

As to `N/C(=N\O)N/N=C\c1cc([N+](=O)[O-])cc([N+](=O)[O-])c1O`, the GI50 in the test with DLD-1 is > 37.2 µM (inactive); in the test on SNB-78 it was > 100 µM (inactive); in the test with DMS-114 it was 6.08 µM (inactive); in the test with KM-20L2, 24.9 µM (inactive); in the test on M19-MEL it was 40.6 µM (inactive); with DMS-273, 2.72 µM (inactive).

As for `COC(CN(C(C)=O)C1CCC2(SCCS2)c2[nH]c3ccccc3c21)OC` (stereo unspecified), the GI50 in the test on 786-0 is > 100 µM (inactive).

With `Nc1nn(CC(O)CO)c(=O)s1` (stereo unspecified), the GI50 in the test with DLD-1, in the test with DMS-114, with LXFL 529, in the test on KM-20L2, with M19-MEL and with DMS-273 was > 100 µM (inactive) in each case. Moreover, the GI50 in the test on RXF 631 is > 100 µM (inactive).

Take `Cc1c(OCc2ccccc2)c(=O)ccn1CCc1c[nH]c2ccccc12`: in the test with 786-0, the GI50 was 33.9 µM (inactive).

Turning to `COc1cc2c(cc1OC)-c1c(cnn1C1OC(COC(C)=O)C(OC(C)=O)C(OC(C)=O)C1OC(C)=O)CC2` (stereo unspecified), the GI50 in the test on DLD-1 was > 100 µM (inactive); in the test with SNB-78 it was > 100 µM (inactive); in the test on DMS-114, 72.6 µM (inactive); in the test with LXFL 529, > 85.7 µM (inactive); in the test on KM-20L2 it was > 100 µM (inactive); with M19-MEL, > 89.1 µM (inactive). In addition, the GI50 in the test with DMS-273 and with 786-0 was > 100 µM (inactive) in each case.

`O=P1(N2CCOCC2)OCCO1`: the GI50 in the test with 786-0 was > 100 µM (inactive).

For `Cc1c(N=NN(C)C)cc[n+]([O-])c1C`, the GI50 in the test on DLD-1, in the test on SNB-78, with DMS-114, in the test on KM-20L2, with M19-MEL and with DMS-273 was > 100 µM (inactive) each time.

With `O=C(O)c1ccccc1C(=O)c1ccco1`, the GI50 with DLD-1, in the test with SNB-78, in the test on DMS-114, with KM-20L2, in the test on M19-MEL and in the test with DMS-273 was > 100 µM (inactive) in each case. In the test with 786-0, the GI50 was > 100 µM (inactive).

In the case of `COc1cc(C)cc2c1C(=O)C(NC(C)=O)=CC2=O`, in the test on 786-0, the GI50 is > 100 µM (inactive).

Turning to `COc1cc(C2c3cc4c(cc3[C@@H](Nc3cccc(C(C)=O)c3)C3COC(=O)[C@H]23)OCO4)cc(OC)c1O` (stereo partly specified), the GI50 is 1.37 µM (inactive) in the test with DLD-1; 2.75 µM (inactive) with SNB-78; 0.505 µM (active) in the test with DMS-114; 1.66 µM (inactive) in the test on KM-20L2; 0.897 µM (active) with M19-MEL; 0.0497 µM (active) in the test on DMS-273.

Consider `N#C/C(=C\c1cccc(O)c1O)C(N)=O`, for which the GI50 was 45.4 µM (inactive) in the test with DLD-1; 52 µM (inactive) in the test on SNB-78; 29.9 µM (inactive) with DMS-114; 50.6 µM (inactive) in the test with LXFL 529; 52.5 µM (inactive) with KM-20L2; 54.8 µM (inactive) in the test on M19-MEL. The results for the GI50 in the test with DMS-273, in the test on 786-0 and in the test on RXF 631 were 57.3 µM (inactive), 33.3 µM (inactive) and 48.8 µM (inactive), respectively.

For the molecule `COc1cc(/C=C/C2=C(C#N)C(=O)OC2(C)C)ccc1O`, the GI50 in the test with DLD-1 was 54 µM (inactive); with SNB-78, > 100 µM (inactive); in the test with KM-20L2, 58.5 µM (inactive); in the test on M19-MEL it was > 100 µM (inactive); in the test on DMS-273, > 100 µM (inactive); in the test with RXF 631, 93.1 µM (inactive).

In the case of `COc1ccc(Sc2ccccc2N)cc1`, the GI50 with DLD-1 is 43.5 µM (inactive); in the test with SNB-78, 37.8 µM (inactive); in the test on DMS-114, 29.8 µM (inactive); in the test with LXFL 529, 41 µM (inactive); in the test on KM-20L2, 52.6 µM (inactive); in the test with M19-MEL, 36.7 µM (inactive). Besides, in the test on DMS-273, the GI50 is 30.6 µM (inactive).

`COc1ccc(C2C(C(=O)O)=C(COC(C)=O)Oc3cc4c(cc32)OCO4)cc1` (stereo unspecified): the GI50 with DLD-1, with SNB-78, with DMS-114, in the test on KM-20L2, in the test with M19-MEL and in the test on DMS-273 was > 100 µM (inactive) in each case. Besides, in the test on RXF 631, the GI50 is > 100 µM (inactive).

On to `COC(=O)c1ccc(NCC2=C(Br)C(=O)C=CC2=O)cc1Cl`, for which the GI50 in the test with 786-0 is 13.3 µM (inactive).

Consider `COc1ccc2cc1Oc1ccc(cc1)C[C@H]1c3cc(c(OC)cc3CCN1C)Oc1c(O)c(OC)cc3c1[C@H](C2)N(C)CC3` [FANGCHINOLINE], for which the GI50 was 23.4 µM (inactive) with DLD-1; 40.7 µM (inactive) in the test on SNB-78; 24.7 µM (inactive) with DMS-114; 1.7 µM (inactive) in the test on KM-20L2; 22.6 µM (inactive) in the test with M19-MEL; 14.7 µM (inactive) with DMS-273.

For `O=c1ccn(CC2(CO)CC(Cc3ccccc3)C2)c(=O)[nH]1` (stereo unspecified), in the test on 786-0, the GI50 was > 100 µM (inactive).

Take `CN1CC=C(c2cccn2C)CC1`: in the test with 786-0, the GI50 is > 100 µM (inactive).

Turning to `Cc1ccc2c(O)cc(-c3cc(C)sc3C)nc2n1`, the GI50 with 786-0 is 3.93 µM (inactive).

On to `CCOC(=O)c1c(-c2ccccc2)c(C)cn1C`, for which, in the test with 786-0, the GI50 is > 10 µM (inactive).

On to `O=C1C(Cl)=C(N2CCC[C@H]2CO)C(=O)c2c(O)ccc(O)c21`, for which the GI50 in the test with 786-0 is 2.03 µM (inactive).

Take `COc1cc2cc(C(=O)N3CC(CCl)c4c3cc(N(C)C)c3ccccc43)[nH]c2c(OC)c1OC` (stereo unspecified): the GI50 with 786-0 was < 0.01 µM (active).

`C/C([O-])=C(/c1nc(-c2ccc([N+](=O)[O-])o2)no1)[n+]1cc(C)ccc1C`: the GI50 in the test on DLD-1 is 11.5 µM (inactive); in the test on SNB-78 it was 20.7 µM (inactive); with DMS-114, 16.3 µM (inactive); in the test with KM-20L2, 12.6 µM (inactive); in the test with M19-MEL, 5.19 µM (inactive); with DMS-273, 11.7 µM (inactive).

As for `[N-]=[N+]=Nc1c(C=O)c(=O)n2c3c(cccc13)CCC2`, the GI50 in the test on 786-0 was 3.93 µM (inactive).

For `O=C1Oc2ccc([N+](=O)[O-])cc2N/C1=C\C(=O)c1ccccc1`, the GI50 in the test on 786-0 was 52.6 µM (inactive).

Take `O=C1c2ccccc2-c2nnc(-c3ccc([N+](=O)[O-])cc3)cc21`: the GI50 in the test with 786-0 is > 10 µM (inactive).

For the molecule `O=C1C2Cc3ccccc3CN2C(=O)N1CN1CCCCC1` (stereo unspecified), the GI50 was > 100 µM (inactive) with DLD-1; > 100 µM (inactive) with DMS-114; > 100 µM (inactive) in the test on LXFL 529; > 100 µM (inactive) in the test on KM-20L2; > 100 µM (inactive) in the test with M19-MEL; 50.8 µM (inactive) with DMS-273. In the test on 786-0, the GI50 is > 100 µM (inactive).

As for `COc1cc(C2c3cc4c(cc3[C@@H](Nc3ccc(N5CCOCC5)cc3)C3COC(=O)[C@H]23)OCO4)cc(OC)c1O` (stereo partly specified), the GI50 was 1.55 µM (inactive) with DLD-1, 1.57 µM (inactive) in the test with KM-20L2, 1.71 µM (inactive) in the test on M19-MEL and 0.238 µM (active) in the test on DMS-273.

For the molecule `C#CC[C@@]12CC(=O)C[C@@H]1CCC1(C2)OCCO1.C#CC[C@]12CC(=O)CC[C@H]1CC(=O)C2`, the GI50 with DLD-1, in the test on SNB-78, in the test on KM-20L2, in the test on M19-MEL and in the test on DMS-273 was > 100 µM (inactive) each time.

For `NC(=O)C1(c2ccccc2)Nc2ccccc2S1` (stereo unspecified), the GI50 in the test on DLD-1, in the test with DMS-114, with LXFL 529, in the test on KM-20L2, in the test on M19-MEL and in the test with DMS-273 was > 100 µM (inactive) in each case.

Consider `CCCCOP1(=O)C=CC(Cl)=C(C)C1` (stereo unspecified), for which the GI50 in the test with DMS-114 was 25.1 µM (inactive); in the test on LXFL 529 it was 27.9 µM (inactive); with KM-20L2, 22.8 µM (inactive); in the test on M19-MEL, 29.7 µM (inactive); in the test on 786-0 it was 22.3 µM (inactive); with RXF 631, 29.1 µM (inactive).

For `COC1C=CC(O)C(CO)O1` (stereo unspecified), the GI50 with DLD-1, in the test on SNB-78, in the test with LXFL 529, in the test with KM-20L2 and with M19-MEL was > 100 µM (inactive) each time.

Regarding `CC(=O)O[C@H]1[C@@H]2OC(=O)[C@@](O)(CC3CCCO3)[C@@H]2CC(=O)[C@](C)(O)CC/C=C(\C)CCC[C@@H]1C` (stereo partly specified), the GI50 in the test with 786-0 was 37.9 µM (inactive).

Consider `CCCCCCCCCCCC1=C(O)C(=O)C=C(O)C1=O` [EMBELIN], for which the GI50 in the test on DLD-1 was 8.49 µM (inactive); in the test on SNB-78, 9.66 µM (inactive); with DMS-114 it was 5.47 µM (inactive); in the test with KM-20L2, 7.43 µM (inactive); in the test with DMS-273 it was 4.72 µM (inactive).

On to `Nc1nnc(N)n1NC(=O)C(=O)Nc1ccc([N+](=O)[O-])cc1`, for which the GI50 in the test with DLD-1, in the test with SNB-78, with DMS-114, in the test with KM-20L2, with M19-MEL and in the test on DMS-273 was > 100 µM (inactive) each time. Also, the GI50 in the test with RXF 631 is > 100 µM (inactive).

`O=C(N/N=C/C=C/c1ccc([N+](=O)[O-])o1)c1ccc(Br)s1`: in the test with 786-0, the GI50 was 19.1 µM (inactive).
